This is an account of results in patent publication US20240150347A1, “INHIBITING CYCLIC AMP-RESPONSIVE ELEMENT-BINDING PROTEIN (CREB) BINDING PROTEIN (CBP)” (FORMATherapeutics,Inc., priority 2020, published 2024).

A short description of series [1]: Dynamic vapor sorption (hygroscopicity). The format is physicochemical. The conditions noted are these: relative humidity of up to 80%, dynamic vapor sorption isotherm plots. From the text: Dynamic Vapor Sorption (DVS) data were collected with a SMS DVS Intrinsic from Surface Measurement Systems.
Series [2] relates to panel of 10 bromodomains. Nature of the series: AlphaScreen panel of 10 BRD. The class given is binding. The conditions noted are these: 10 BRD of various branches of the bromodomain tree. Background: Bead proximity is the source of the signal in Alpha formats.
Series [3] concerns human kinases and disease-relevant mutant variants. Nature of the series: KINOMEscan screen for kinase inhibition. The class given is binding.

Molecules are shown by their SMILES. Counter-ions that a name gives are not always drawn.

On to `COC(=O)N1c2ccc3c(nc([C@H](O)c4cc(F)ccc4OC)n3[C@@H]3CCC[C@@H](C(=O)O)C3)c2CC[C@@H]1C` [type B p-toluenesulfonic acid addition salt], for which the water uptake in series [1] was 2.1%. On the same count and under the same terms, in the case of `COC(=O)N1c2ccc3c(nc([C@H](O)c4cc(F)ccc4OC)n3[C@@H]3CCC[C@@H](C(=O)O)C3)c2CC[C@@H]1C` [HCl type A salt, (1R,3R)-3-((S)-2-((R)-(5-fluoro-2-methoxyphenyl)(hydroxy)methyl)-6-(methoxycarbonyl)-7-methyl-6,7,8,9-tetrahydro-3H-imidazo [4,5-f]quinolin-3-yl)cyclohexane-1-carboxylic acid] it was 6.3%.

Turning to `COC(=O)N1c2ccc3c(nc([C@H](O)c4cc(F)ccc4OC)n3[C@@H]3CCC[C@@H](C(=O)O)C3)c2CC[C@@H]1C` [Compound 1, (1R,3R)-3-[(7S)-2-[(R)-(5-fluoro-2-methoxyphenyl)(hydroxy)methyl]-6-(methoxycarbonyl)-7-methyl-3H,6H,7H,8H,9H-imidazo[4,5-f]quinolin-3-yl]cyclohexane-1-carboxylic acid], the “activity against panel of 10 bromodomains” value in series [2] is “inactive against 8”. Besides, the “binding affinity for human kinases and disease-relevant mutant variants” value in series [3] is recorded as “no to low binding affinity”.
